Among the data in ChEMBL document CHEMBL5096225 (J Med Chem, 2022) are solubility values, retold here.

Converted amounts (≈) assume the structure as drawn.

This data set in a line: Solubility of the compound in deionized water. In kind it is physicochemical.

`O=C(c1cc(O)cc(F)c1)c1cc(O)c(O)c([N+](=O)[O-])c1` registered a solubility of 56 µg/mL (≈ 191 µM).

Molecule `Cc1ccc(C(=O)c2cc(O)c(O)c([N+](=O)[O-])c2)cc1` [TOLCAPONE] gave a solubility of 45 µg/mL (≈ 165 µM).
